Measured values from patent publication US20210139528A1, “CRYSTALLINE FORMS OF OBETICHOLIC ACID” (INTERCEPT PHARMACEUTICALS, INC., priority 2017, published 2021).
Structures can show the parent of a compound that is named as a salt.

Experiments:
[1] = Storage at elevated temperature/humidity, solid form checked by XRPD
[2] = Gravimetric Vapor Sorption (GVS); format: physicochemical; conditions: for GVS water uptake: 0-90% RH range, about 25° C.; for XRPD post GVS (form recovered after the experiment): after GVS cycle 0-90% RH
Procedure: Sorption isotherms were obtained using a SMS DVS Intrinsic moisture sorption analyzer, controlled by DVS Intrinsic Control software v1.0.1.2 (or v 1.0.1.3). The sample temperature was maintained at about 25° C. by the instrument controls. The humidity was controlled by mixing streams of dry and wet nitrogen, with a total flow rate of about 200 mL/min. The relative humidity was measured by a calibrated Rotronic probe (dynamic range of about 1.0-100% RH), located near the sample. The weight change, (mass relaxation) of the sample as a function of % RH was constantly monitored by the microbalance (accuracy ±0.005 mg). Typically, about 18-20 mg of sample was placed in a tared mesh stainless steel basket under ambient conditions. The sample was loaded and unloaded at about 40% RH and about 25° C. (typical room conditions). A moisture sorption isotherm was performed as outlined in Table 1 (2 scans giving 1 complete cycle). The standard isotherm was performed at about 25° C. at about 10% RH intervals over a 0-90% RH range. Data analysis was carried out using Microsoft Excel using DVS Analysis Suite v6.2 (or 6.1 or 6.0). The sample was recovered after completion of the isotherm and re-analysed by XRPD.

Molecule	Stability on storage at 25° C./97% RH (XRPD) ([1]; 25° C./97% RH, 7 days)	Stability on storage at 40° C./75% RH (XRPD) ([1]; 40° C./75% RH, 7 days)	Stability on storage at 40° C./75% RH (XRPD), screening sample ([1]; screening sample, 40° C./75% RH, 23 days)	GVS water uptake [2]	GVS water uptake ([2]; listed as cocrystal) [% water uptake]	XRPD post GVS (form recovered after the experiment) [2]	XRPD post GVS (form recovered after the experiment) ([2]; listed as cocrystal)
CC[C@H]1[C@@H](O)[C@@H]2[C@H](CC[C@]3(C)[C@@H]([C@H](C)CCC(=O)O)CC[C@@H]23)[C@@]2(C)CC[C@@H](O)C[C@@H]12 [obeticholic acid monoammonium salt]	amorphous	unchanged	possible form change	–	–	–	–
Obeticholic acid-ursodeoxycholic acid (2:1) cocrystal [OCA:UDCA cocrystal]	–	–	–	ca. 1 % w/w	1	no change	Unchanged by XRPD
